“Also recorded” adds a separate entry of the source.
How the values were obtained:
[1] = test system: C57BL/6J mice; assay: Thioglycollate peritonitis model, leukocyte counting in peritoneal liquid; format: in vivo, mouse
Experimental: C57BL/6J (The Jackson Laboratory) female mice were chosen for this experiment. The acute inflammation was induced by thioglycollate injection into the abdominal cavity as described by Hoover-Plow J. L. et al. (Strain and model dependent differences in inflammatory cell recruitment in mice. Inflammation Research, 2008. 57(10): p. 457-463).
Mice were injected intraperitoneally with 0.5 mL of 4% thioglycollate (Becton Dickinson, Cockeysville, MD) and after 6 or 72 hours corresponding to peak neutrophil (6 hours) and macrophage (72 hours) recruitment, peritoneal lavage fluid, and cells were harvested as previously described by Ploplis, V. A. et al. (Plasminogen deficiency differentially affects recruitment of inflammatory cell populations in mice. Blood, 1998. 91(6): p. 2005-2009). The number of neutrophils and macrophages (Tang, L. P. and J. W. Eaton, Fibrin (Ogen) Mediates Acute Inflammatory Responses to Biomaterials. Journal of Experimental Medicine, 1993. 178(6): p. 2147-2156) accumulating in the lavage were determined from the enzyme activity of myeloperoxidase for neutrophils (Himmelhoch, S. R., et al., Purification of myeloperoxidases from the bone marrow of the guinea pig. Biochemistry, 1969. 8(3): p. 914-21) and non-specific esterase for macrophage/monocytes (Torres, J. L., R. S. Rush, and A. R. Main, Physical and chemical characterization of a horse serum carboxylesterase. Arch Biochem Biophys, 1988. 267(1): p. 271-9).
After inducing the inflammation (peritonitis), compound of Formula 2 was injected at a concentration of 12.5 mg/kg (DMSO, 01% in PBS, IP), twice (one day after the other). The next day, mice were sacrificed and the peritoneal liquid was collected from the control and treated mice (n=3 for each group). Two assays were conducted for the estimation of the possible anti-inflammatory effect of compound of Formula 2: leukocyte counting (the total amount and the calculation of the percentage of different leukocyte fractions) and a flow cytometry.

[2] = test system: C57BL/6J mice; assay: High-fat-diet induced non-alcoholic fatty liver disease (NAFLD) model; format: in vivo, mouse; conditions: 15 mg/kg SC or IP q3w; 30 mg/kg PO qd; 65 days
Experimental: Male C57BL/6J (Envigo, Israel) mice (3-4 weeks of age) were fed ad libitum a high fat, no high carbohydrate diet (modified Western diet, WD) with 42% kcal from fat and containing 0.1% cholesterol (Harlan TD.88137) with normal water (without high fructose-glucose solution) for […] prior to treatment initiation. Control mice were fed a standard chow diet (CD, Harlan TD.7012) with normal water (NW). Compound of Formula 2 was administrated on the 85th day of the high fat diet (15 mg/kg, for S.C and IP at q3w regiment; 30 mg/kg for PO at qd regiment) for 65 days. Mock treated (vehicle) control group was administrated with IP injections at the same volume and regiment as a corresponding treated group for 65 days. Body weight of animals was determined prior to the treatment initiation and the administered volume of the compound of Formula 2 was adjusted according to the body weight. All animals were euthanized 24 hours post last dose administration. At necropsy liver and mesenteric fat wet weights were determined. Liver and mesenteric fat were fixed with 4% buffered formalin, embedded in paraffin, sections and H&E stained. Steatohepatitis was defined by the presence of steatosis, inflammation and hepatocellular ballooning, as per the FLIP algorithm. The severity of steatosis, lobular inflammation and hepatocellular ballooning were scored using the NASH-Clinical Research Network (CRN) criteria. NAFLD activity score (NAS) was calculated by adding the scores of: steatosis (maximal score 3) is defined by more than 66% of hepatocytes containing fat droplets; lobular inflammation (maximal score 3) is defined by >4 foci/200 field; hepatocyte ballooning (maximal score 2) is defined by many cells/prominent ballooning. Ordinary one-way ANOVA statistical analysis was performed.

Question: How did the “amount of neutrophils and monocytes” value ([1]; 12.5 mg/kg IP, twice) turn out when `COC(=O)c1ccc(COc2c(C=C3C(=O)NC(=O)NC3=O)cccc2C(C)(C)C)cc1` [Formula 2, methyl 4-((2-(tert-butyl)-6-((2,4,6-trioxotetrahydropyrimidin-5(2H)-ylidene)methyl)phenoxy)methyl) benzoate] was run?
Answer: not affected

Question: And the “increase of the amount of dendritic cells in the peritoneal liquid” value ([1]; 12.5 mg/kg IP, twice)?
Answer: 2.5 fold

Question: And the “reduction of the amount of lymphocytes in the peritoneal liquid” value ([1]; 12.5 mg/kg IP, twice)?
Answer: 85%

Question: What about the “total amount of leukocytes in the abdominal liquid” value ([1]; 12.5 mg/kg IP, twice) of the same compound?
Answer: not affected

Question: What about the “White blood cell (WBC) counts of peritoneal fluids” value ([1]; FIG. 8 legend: 30 μM injected once on the third day, n=6) of the same compound?
Answer: reduced

Question: And the NAFLD activity score [2]?
Answer: significant reduction; also recorded: therapeutic effect

Question: What about the mesenteric fat weight [2] of the same compound?
Answer: significant reduction; also recorded: decreased

Question: What about the mice body weight [2] of the same compound?
Answer: significant reduction

Question: And the wet liver weight [2]?
Answer: significant reduction; also recorded: decreased
